Patent US5792457A, “Antibody recognizing endothelial cell ligand for leukocyte CR3” (priority 1995, dated 1998)

Experiments:
[1] = tested on: neutrophil adherence to human umbilical vein endothelial cells (HUVEC); assay: Adherence of neutrophils to cultured (TNF alpha stimulated) endothelial cells; format: cell-based; settings: for role of RGD in blocking neutrophil adherence (in words) / inhibition of neutrophil adherence: 20-mer peptides, 0.5 mM; for maximal inhibition of neutrophil attachment: concentration series (FIG. 25B); for inhibition of neutrophil adherence (in words): peptides 0.5 mM (Example 9); for neutrophil adherence, peptide plus 9D4: peptide 5 μg/ml + 9D4 10 μg/ml; for neutrophil adherence, peptide plus 12H1: peptide 5 μg/ml + 12H1 10 μl of ascites; for neutrophil adherence, peptide plus IB4: peptide 5 μg/ml + IB4 10 μg/ml; for neutrophil adherence, single agent: peptide 5 μg/ml or antibody alone (IB4 10 μg/ml, 12H1 10 μl of ascites, 9D4 10 μg/ml); for additive reduction of neutrophil adherence, peptide together with IB4: with anti-CD18 mAb IB4 (50 μg/ml)
Experimental: FIG. 17 is a bar graph representation of the inhibition of neutrophil adherence to activated endothelial cells by FHA, Factor X- and FHA- derived peptides. The concentration of inhibiting substances was: peptides 0.5 mM, native FHA 0.3 μM. Values represent the mean±standard deviation of 4 experiments with 5 wells/peptide.
FIG. 18 is a graphical representation of the FHA, FHA- or Factor X-peptide concentration effects on the inhibition of neutrophil adherence to activated endothelial cells. FHA peptide II monomer (Square) and trimer (Diamond), Factor X peptide II (Circle) at 10^-9 μM to 0.5 mM; native FHA at 10^-6 to 3×10^2 μM (triangle). Values represent the mean of 3 experiments with 5 wells/peptide (standard deviations <15%).
FIG. 25 is a graphical representation of the inhibition of neutrophil adherence to activated endothelial cells by FHA and FHA peptides. FIG. 25A: Peptide concentrations were 0.5 mM (FHA 0.2 μM). Values represent mean±standard deviation of four experiments with 5 wells/peptide; FIG. 25B represents the mean±standard deviation of triplicate experiments with 5 wells/peptide. Native FHA (.quadrature.); FHA peptide Ca (.largecircle.).
Human umbilical vein endothelial cells (HUVEC, first passage, Clonetics, San Diego, Calif.) were subcultured at confluence into Terasaki tissue culture wells. After 24 hours, confluent monolayers were used for adherence assays. Monolayers were stimulated with 10 ng/ml TNF alpha (Boehringer Mannheim, Indianapolis, Ind.) at 37° C. for four hours. 30 μl of human neutrophils (10^6 /ml) were labeled with fluorescein by the method of Lo et al. (1991), J. ExP. Med. 173 1493-1500, and preincubated for 15 minutes at 37° C. with 20 μl of peptides (0.5 mM in HAP) or HAP (phosphate buffered saline containing 0.5 mg/ml human serum albumin, 3 mM glucose, and 0.3 U/ml aprotinin) as a control buffer. For some experiments, endothelial cells were pretreated from 10 minutes with Factor X or antibodies against Factor X receptor (EPR-1; Altieri et al. (1990), J. Immunol. 145, 246-253) 12H1 and 9D4 (obtained from Dr. D. Altieri, Scripps Research Institute, LaJolla, Calif.) and then washed. Neutrophils were allowed to adhere to the monolayer for 15 mins. at 37° C. and unbound cells were removed by submersion of the plate in PBS buffer. The number of adherent neutrophils was counted in a 40× microscope field and expressed as a percentage of adherence in control wells with neutrophils treated with HAP buffer alone. The mAb IB4 against CD18 (50 μg/ml; Merck Inc., Rahway, N.J.) served as a positive control.
The ability of FHA peptides and anti-CD18 or anti-Factor X receptor antibodies to interact cooperatively to inhibit neutrophil adherence to endothelial cells was assessed by measuring neutrophil adherence to endothelial cells in the presence of antibody as well as antibody plus peptide. […] Anti-Factor X receptor mAb 12H1 (10 μl of ascites) or 9D4 (10 μg/ml) were added to the endothelial cell monolayers 10 min before the assay. The peptides were added at 5 μg/ml. The results are shown in Table 8 where the numerical values are in % of control binding.
The procedures for determining the neutrophil adherence to cultured endothelial cells and the transendothelial migration of neutrophils were identical with those of Example 9. Control values were the same as those shown in Example 9.

[2] = tested on: lactate metabolism during meningeal inflammation; assay: Rabbit model for meningitis: lactate in CSF; format: in vivo, New Zealand white rabbits; settings: 6 hours after challenge
Experimental: The rabbit model was performed according to an established protocol. Specific pathogen free, New Zealand white rabbits (2 kg; Hare Marland, Nutley, N.J.) were anesthetized with valium (2.5 mg/kg, subcutaneously, Hoffman-LaRoche, Nutley, N.J.), ketamine (35 mg/kg, intra-muscularly, Aveco, Fort Dodge, Iowa) and xylazine (5 mg/kg, intramuscularly, Miles Laboratories, Shawnee, Kans.) and a helmet of dental acrylic was affixed to the calvarium. Twenty four hours later, the rabbits were anesthetized with ethyl carbamate (1.75 g/kg; Aldrich Chemical Co., Milwaukee, Wis.) and pentobarbital (15 mg/kg; Abbott Laboratories, Abbott Park, Ill.) and placed in a stereotaxic frame. A spinal needle was introduced into the cisterna magna and 300 μl of CSF was withdrawn. The animals were challenged intracisternally with 10^8 heat killed, unencapsulated pneumococcus strain R6 introduced in 200 μl of saline (time 0). One hour later, animals were treated with peptides dissolved in 1 ml of saline by intravenous injection into the right marginal ear vein. The concentration of FHA was 0.1 μM and that of the FHA Ia, Factor X II, and scrambled FHA II peptides was 10 μM. For the acetyl-FHA II, acetyl/amide-FHA II, dimer of FHA II and trimer of FHA II peptides, the concentration was 10^-3 μM. The concentration of FHA II is given in the results section. Samples of CSF were withdrawn at hourly intervals after pneumococcal inoculation and leukocyte density was measured using a cell counter (Coulter Electronics Inc., Hialeah, Fla.). CSF samples were centrifuged at 10,000×g for 5 minutes and the supernatant was stored at -70° C. until assayed for protein concentration using the bicinchoninic acid method (ECA Kit, Pierce Chemical Co., Rockford, Ill.) and for lactate concentration (Lactate Detection Kit, Sigma, St. Louis, Mo.). Statistically significant differences between treatments were determined by a one way analysis of variance test.
Loss of barrier function of the cerebral capillary endothelium during inflammation is reflected by an influx of serum proteins into the CSF. […] To examine if the peptides were able to ameliorate these measures of cerebral injury, CSF protein and lactate concentrations were measured hourly in peptide-treated and control animals (Table 10).
Mean values for CSF lactate and protein at time 0 were 18.6±5.8 and 0.8±0.2 respectively. Ten control animals received phosphate-buffered saline. The concentration of FHA II intravenously injected one hour after challenge with pneumococci was 10 μM. Values represent mean±standarddeviation of concentrations in CSF at 6 hours after pneumococcal challenge (n≥4 for peptide treated animals; n=4 for FHA). *Statistically significant difference as compared to control at p<0.02 (Mann-Whitney test).
Again, mean values for CSF lactate and protein at time 0 were 18.6±5.8 and 0.8±0.2, respectively. Ten control animals received phosphate-buffered saline. The concentrations of FHA II intravenously injected was 10^-3 μM. Values represent mean±standard deviation of concentrations in CSF at 6 hours after pneumococcal administration (n≥4 per group).

**Q.** AADPHQGVLAQGDIIMDAKG [FHA Cc] was tested. Which “role of RGD in blocking neutrophil adherence (in words)” value [1] did it give?
**A.** The value was “activity was detectable above background but was not statistically different from buffer alone”.

**Q.** Which results are given for RGDPHQGVLAQGDIIMDAKG [FHA Ca]?
**A.** inhibition of neutrophil adherence [1]: 47±7%; maximal inhibition of neutrophil attachment [1]: ~ 50%

**Q.** How did the “inhibition of neutrophil adherence (in words)” value (shortened to “inhibition … (in words)”) [1] turn out when Ac-ETKEVDG-NH2 [Acetyl/Amide-FHA II] was run?
**A.** Its value is “significantly enhanced the ability of peptide FHA II to block neutrophil adherence to endothelia”.

**Q.** What about the “Lactate in CSF” value ([2]; peptides 10 μM, FHA 0.1 μM) of the same substance?
**A.** The value was 24.3 ± 3.2 mg/100 ml.

**Q.** With “LGYQAK (UniProt P12255 1979-1984, looked up, fragment) [FHA Ia]” as the substance, how does the “neutrophil adherence, peptide plus 9D4” value [1] read?
**A.** Its value is 63 ± 17 % of control binding.

**Q.** What about the “neutrophil adherence, peptide plus 12H1” value [1] of the same substance?
**A.** Its value is 64 ± 12 % of control binding.

**Q.** And the “neutrophil adherence, peptide plus IB4” value [1]?
**A.** The value was 20 ± 7 % of control binding.

**Q.** What about the “neutrophil adherence, single agent” value [1] of the same substance?
**A.** Its value is 63 ± 12 % of control binding.

**Q.** What about the “inhibition … (in words)” value [1] of the same substance?
**A.** Its value is “significantly more active than the Factor X peptide I”.

**Q.** And the “additive reduction of neutrophil adherence, peptide together with IB4” value [1]?
**A.** The value was over 80±10%.

**Q.** What about the “Lactate in CSF” value ([2]; peptides 10 μM, FHA 0.1 μM) of the same substance?
**A.** Its value is 36.0 ± 6.7 mg/100 ml.

**Q.** GYDTKQEDG [Factor X II] was tested. Which “Lactate in CSF” value ([2]; peptides 10 μM, FHA 0.1 μM) did it give?
**A.** Its value is 37.6 ± 6.9 mg/100 ml.

**Q.** With GTLLLRNDALTENGTVTISA [FHA Cd] as the substance, how does the “inhibition of neutrophil adherence” value [1] read?
**A.** The value was under 15%.

**Q.** For “DEETVK [scrambled FHA II, reference compound]”, which “inhibition … (in words)” value [1] is on record?
**A.** Its value is “did not interfere with neutrophil binding”.

**Q.** What about the “Lactate in CSF” value ([2]; peptides 10 μM, FHA 0.1 μM) of the same substance?
**A.** Its value is 40.7 ± 5.8 mg/100 ml.

**Q.** For RADPHQGVLAQGDIIMDAKG [FHA Cb], which “role of RGD in blocking neutrophil adherence (in words)” value [1] is on record?
**A.** Its value is “activity was decreased by half”.

**Q.** Which results are given for “native FHA: Filamentous hemagglutinin, 220kD surface associated protein of Bordetella pertussis (List Biologicals)”?
**A.** concentration at which loss of activity (≤20% inhibition) occurred [1]: 10^-3 μM; maximal inhibition of neutrophil attachment [1]: ~ 50%; reduction of neutrophil binding to HUVEC ([1]; native FHA 25 μg/ml = 0.3 μM): 51±8%; inhibition of adherence of neutrophils to endothelial cells ([1]; native FHA 50 ug/ml, 0.2 uM): 51±7%; Lactate in CSF ([2]; peptides 10 μM, FHA 0.1 μM): 25.0 ± 5.3 mg/100 ml

**Q.** Which “neutrophil adherence, peptide plus 9D4” value [1] does the source give for ETKEVDG [FHA II] here?
**A.** The value was 45 ± 9 % of control binding.

**Q.** What about the “neutrophil adherence, peptide plus 12H1” value [1] of the same substance?
**A.** Its value is 67 ± 13 % of control binding.

**Q.** What about the “neutrophil adherence, peptide plus IB4” value [1] of the same substance?
**A.** The value was 11 ± 6 % of control binding.

**Q.** And the “neutrophil adherence, single agent” value [1]?
**A.** Its value is 40 ± 23 % of control binding.

**Q.** What about the “additive reduction of neutrophil adherence, peptide together with IB4” value [1] of the same substance?
**A.** Its value is over 80±10%.

**Q.** What about the “Lactate in CSF” value ([2]; 10^-3 μM) of the same substance?
**A.** The value was 35.3 ± 6.7 mg/100 ml.

**Q.** What about the “Lactate in CSF” value ([2]; peptides 10 μM, FHA 0.1 μM) of the same substance?
**A.** Its value is 25.5 ± 4.1 mg/100 ml.
